How the values were obtained:
QPCTL = biological target: T1, QPCTL (Homo sapiens, UniProt Q9NXS2); experiment: Flow cytometry and immunofluorescence of CD47 antibody binding in HAP1 cells after QPCTL inhibitor treatment; format: cell-based; conditions: inhibitor treatment (FIG. 14B, 14D, 14E), CC2C6 detects pyro-Glu modified CD47
T1 construct: endogenous in cells; host or cells: HAP1 cells (Horizon, clone C631)

QPCT target loci = experiment: CRISPR editing analysis (TIDE / ICE) of double-sgRNA infected samples, QPCT target loci; format: cell-based, human; conditions: two independent experiments; for KO-score: ICE; for mean percent edited: TIDE
Description: (§1) Generation of CD47, QPCT and QPCTL knock-out cells. For transduction experiments using cell pools, single-stranded sgRNA oligos were annealed using T4 PNK in T4 ligation buffer (both NEB), and ligated into digested (BsmBI; NEB), phosphatase-treated (rSAP or CIP, NEB) and gel-purified modified pLCKO (for HAP1-Cas9) or pLCV2 (for HAP1, 293T and KMS11) backbones^24,25 using T4 DNA ligase. All plasmids were Sanger sequence verified and virus was prepared and titered as described above. HAP1, HAP1-Cas9 cells, 293T cells or KMS11 cells were infected with target and control gRNAs (MOI<1) in presence of 8 μg/ml polybrene. 24 h post infection, the medium was replaced with fresh medium containing puromycin (1 ug/ml for HAP1 and HAP1-Cas9, 1-2 ug/ml for 293T, 0.5 ug/ml for KMS11) and cells were incubated for 48 h. Cells were further cultured in selection-free medium as indicated for individual experiments (typically T3-T6), and passaged every 3-4 days. […] For infections with two sgRNAs (HAP1-Cas9 only), the second sgRNA was cloned into pLCKO hygro. Selection was carried out in puromycin (1 ug/ml) and hygromycin (800 ug/ml)-containing medium for the first 48 h, then in hygromycin-only medium for further 4-5 days. For single-cell knock-out clones (HAP1 only), sgRNAs were cloned into modified PX459v2.0 (from Addgene #62988, 1 kb stuffer sequence added). HAP1 cells were transfected using Lipofectamine 3000 (3.75 μl and 2.3 μg plasmid per 6-well), selected with puromycin for 48 h as above and seeded in limiting dilutions (1 cell/100 μl/96-well) 3 days later. Single-cell colonies were expanded, cryo-banked (in standard medium with 10% DMSO and a total of 20% FBS) and analyzed for mutations as described below. An sgRNA targeting the AAVS1 locus was used as negative control.
CRISPR editing analysis. For analysing indels after CRISPR-mediated editing, genomic DNA was isolated using the QIAamp DNA Blood Mini kit (Qiagen) or the Extracta DNA Prep kit (Quantabio). sgRNA target regions (100-200 bp up- and 500 bp downstream of sgRNA sequence) were amplified by touchdown PCR (−0.5° C./cycle from 72° C. to 60° C. plus 10 additional cycles at 59° C.) from 50-100 ng input DNA, PCR products were purified using the PureLink Quick PCR purification kit (Invitrogen) if necessary and analyzed by Sanger sequencing. Sequences were analyzed to determine the percentage of edited sequences contained in the sample using TIDE^49 and a “KO-score” using ICE^50 (Synthego). Non-edited cells amplified with the same primers were used as control samples. A representative analysis of double-sgRNA infected samples from two independent experiments yielded the following editing results for QPCT and QPCTL target loci (by sgRNA; mean percent edited/KO-score±SD): QPCTL #1 58.2/NA±16.2/N, QPCTL #2 33.23/47±32.96/0, QPCT #1 33.15/56±36.51/0, QPCT #2 80.2/76.4±19.85/2.42, QPCT #3 68.18/36.33±4.29/2.08; AAVS1/CD47 #1 (background or off-target, mean±SD over all QPCT and QPCTL target loci) 14.4/1.33±14.95/0.58. For single-cell derived clones, TIDE and ICE were used for screening purposes, and mutations were independently confirmed by PCR, Sanger sequencing and sequence alignment as described.

QPCTL target loci = experiment: CRISPR editing analysis (TIDE / ICE) of double-sgRNA infected samples, QPCTL target loci; format: cell-based, human; conditions: two independent experiments; for mean percent edited: TIDE
Description: as §1, with “For single-cell knock-out clones (HAP1 only), sgRNAs were cloned into modified PX459v2.0 (from Addgene #62988, 1 kb stuffer sequence added). HAP1 cells were transfected using Lipofectamine 3000 (3.75 μl and 2.3 μg plasmid per 6-well), selected with puromycin for 48 h as above and seeded in limiting dilutions (1 cell/100 μl/96-well) 3 days later.” left out, “An sgRNA targeting the AAVS1 locus was used as negative control.” left out
CRISPR editing analysis. For analysing indels after CRISPR-mediated editing, genomic DNA was isolated using the QIAamp DNA Blood Mini kit (Qiagen) or the Extracta DNA Prep kit (Quantabio). sgRNA target regions (100-200 bp up- and 500 bp downstream of sgRNA sequence) were amplified by touchdown PCR (−0.5° C./cycle from 72° C. to 60° C. plus 10 additional cycles at 59° C.) from 50-100 ng input DNA, PCR products were purified using the PureLink Quick PCR purification kit (Invitrogen) if necessary and analyzed by Sanger sequencing. Sequences were analyzed to determine the percentage of edited sequences contained in the sample using TIDE^49 and a “KO-score” using ICE^50 (Synthego). […]

CD47 = experiment: Validation of CD47 sgRNA knock-out HAP1 cell lines by flow cytometry and microfluidic sorting; format: cell-based, human; conditions: HAP1 cells, CD47 gene (FIG. 11C)
From the text: As shown in FIG. 11A-C, this included sorting the wildtype (WT) HAP1 cells at different flow rates to decide on the ideal operating conditions, assessing the sorting of HAP1 cells transduced with sgRNAs targeting the CD47 gene (which should result in a decrease in the number of CD47+ cells), and mixing WT and clone cells together, sorting them and recovering the initial ratios. Experimental parameters were designed to have the majority of WT HAP1s be sorted into the middle bin thus upregulation and downregulation of CD47 could be assessed. […]
MICS sorting. […] Cells were sorted by MICS at a concentration of ˜5×10^6 cells/ml in HBSS with 2% BSA; initial cell concentration was measured using a Countess Automated Cell Counter (Invitrogen). […] Sorted samples were collected in their respective syringes, and the volume of solution collected in each syringe was measured by weight. […] Each sample was then loaded onto a 10-chambered microscope slide (Quick Read 3805, Globe Scientific) and cells were counted under fluorescent excitation using a custom counting macro and a Nikon TI Eclipse microscope. Sort efficiency was calculated by dividing the number of cells collected in the medium and high outlets by the total number of cells collected (low, medium and high). […]

T1 sequence (Q9NXS2 whole entry): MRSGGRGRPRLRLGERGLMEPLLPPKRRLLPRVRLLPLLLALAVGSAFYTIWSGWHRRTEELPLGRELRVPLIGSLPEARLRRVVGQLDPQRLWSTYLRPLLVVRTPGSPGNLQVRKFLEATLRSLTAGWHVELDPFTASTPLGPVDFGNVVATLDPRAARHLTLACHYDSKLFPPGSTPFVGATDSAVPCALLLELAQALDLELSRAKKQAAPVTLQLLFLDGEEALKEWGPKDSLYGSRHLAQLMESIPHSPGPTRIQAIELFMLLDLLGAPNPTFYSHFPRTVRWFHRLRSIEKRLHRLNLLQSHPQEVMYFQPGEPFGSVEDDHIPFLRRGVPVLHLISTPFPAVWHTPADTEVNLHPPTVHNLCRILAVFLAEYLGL

Compound: CCCOc1ccc([C@H]2CNC(=O)N2c2ccc3[nH]cnc3c2)cc1 [PQ912]
- CC2C6 binding (QPCTL): decreased

Compound: QPCT #1: sgRNA from the TKOv3 library, sequence TCAAGGATCACTCTTTGGAG (chemistry not fully specified)
- KO-score (QPCT target loci): 56
- mean percent edited (QPCT target loci): 33.15%

Compound: QPCTL #2: sgRNA from the TKOv3 library, sequence ACAGGGCACAGCCGAATCCG (chemistry not fully specified)
- KO-score (QPCTL target loci; ICE): 47
- mean percent edited (QPCTL target loci): 33.23%

Compound: QPCT #3: sgRNA from the TKOv3 library, sequence GACCAAATGTCGTTTAGCAG (chemistry not fully specified)
- KO-score (QPCT target loci): 36.33
- mean percent edited (QPCT target loci): 68.18%

Compound: QPCTL #1: sgRNA from the TKOv3 library, sequence GGGTTCGCACAACCAGCAGG (chemistry not fully specified)
- mean percent edited (QPCTL target loci): 58.2%

Compound: Guide #4: sgRNA targeting CD47 from the TKOv3 library, sequence GAAGACTATACAACCTCCTA (chemistry not fully specified)
- gene inactivation (CD47): ineffective at gene inactivation

Compound: QPCT #2: sgRNA from the TKOv3 library, sequence AGAGGCACCAGCCAACTGCA (chemistry not fully specified)
- KO-score (QPCT target loci): 76.4
- mean percent edited (QPCT target loci): 80.2%
